We go through 32 compounds from patent US7875618B2, “Substituted imidazo[1,5-a]quinoxalines useful as inhibitors of phosphodiesterase 10 for the treatment of neurological and other disorders” (Wyeth, priority 2007, dated 2011).

The target of one test is PDE10 from pig striatum (Sus scrofa, UniProt A0A287B941). Put plainly: Inhibition of PDE10 from pig striatum ([3H]-cAMP SPA, Methods A and B). The class given is biochemical. The following applies: PDE10 pig. The protocol: Striatum from male Wistar rats (180-200 g), male hybrid pigs (150 kg) and male guinea pigs (CRL (HA), 500 g) respectively were collected and frozen at −70° C. At the day of preparation 0.5 g striatum was homogenised in 10 ml 50 mM Tris/Mg-buffer at 4° C. and centrifuged for one hour at 100000 g. The supernatant is called the cytosolic fraction and was removed and stored on ice. The pellet was resuspended in the same buffer, but containing 1% Triton and incubated for 45 min at 4° C. Both fractions were independently applied onto a 5 ml Hi Trap™ QHP column at the Äkta-FPLC. After washing the columns the bound PDE protein was eluted with an increasing sodium chloride gradient (0 mM-500 mM sodium chloride) in 50 mM Tris/Mg-buffer at 4° C. for the cytosolic fraction and in the presence of 1% Triton for the membrane fraction. […] The fractions with PDE10-activity were pooled and frozen in aliquots until use at −20° C. PDE10 activity was determined in a one step procedure in microtiter plates. […] Nonspecific activity was tested without the enzyme. The reaction was initiated by addition of the substrate solution and was carried out at 37° C. for 30 minutes. Enzymatic activity was stopped by addition of 25 μl YSi-SPA-beads (Amersham-Pharmacia). One hour later the mixture was measured in a liquid scintillation counter for microtiter plates (Microbeta Trilux). To pipette the incubation mixture a robot Biomek (Fa. Beckman) is used. […] For determination of IC50 values the Hill-plot, 2-parameter-model, was used. […] Striatum from male hybrid pigs (150 kg) were collected and frozen at −70° C. At the day of preparation 0.5 g striatum was homogenised in 10 ml 50 mM Tris/Mg-buffer at 4° C. and centrifuged for one hour at 100000 g. The supernatant was removed and the pellet was resuspended in the same buffer, but containing 1% Triton and incubated for 45 min at 4° C. The membrane fraction was applied onto a 5 ml Hi Trap™ QHP column at the Äkta-FPLC. After washing the column the bound PDE protein was eluted with an increasing sodium chloride gradient (0 mM-500 mM sodium chloride) in 50 mM Tris/Mg-buffer at 4° C. in the presence of 1% Triton. […] The fractions with PDE10-activity were pooled and frozen in aliquots until use at −20° C. PDE10 activity was determined in a one step procedure in microtiterplates. […] Nonspecific activity was tested without the enzyme. The reaction was initiated by addition of the substrate solution and was carried out at 37° C. for 30 minutes. Enzymatic activity was stopped by addition of 25 μl YSi-SPA-beads (Amersham-Pharmacia). One hour later the mixture was measured in a liquid scintillation counter for microtiterplates (Microbeta Trilux). To pipette the incubation mixture a robot Biomek (Fa. Beckman) is used. […] For determination of IC50 values the Hill-plot, 2-parameter-model, was used.

The target in the next test is T1, human recombinant PDE10A (Homo sapiens, UniProt Q9Y233).
T1 construct: made in house; host or cells: SF21 insect cells (baculovirus)
T1 sequence (Q9Y233 1-779 isoform Q9Y233-1): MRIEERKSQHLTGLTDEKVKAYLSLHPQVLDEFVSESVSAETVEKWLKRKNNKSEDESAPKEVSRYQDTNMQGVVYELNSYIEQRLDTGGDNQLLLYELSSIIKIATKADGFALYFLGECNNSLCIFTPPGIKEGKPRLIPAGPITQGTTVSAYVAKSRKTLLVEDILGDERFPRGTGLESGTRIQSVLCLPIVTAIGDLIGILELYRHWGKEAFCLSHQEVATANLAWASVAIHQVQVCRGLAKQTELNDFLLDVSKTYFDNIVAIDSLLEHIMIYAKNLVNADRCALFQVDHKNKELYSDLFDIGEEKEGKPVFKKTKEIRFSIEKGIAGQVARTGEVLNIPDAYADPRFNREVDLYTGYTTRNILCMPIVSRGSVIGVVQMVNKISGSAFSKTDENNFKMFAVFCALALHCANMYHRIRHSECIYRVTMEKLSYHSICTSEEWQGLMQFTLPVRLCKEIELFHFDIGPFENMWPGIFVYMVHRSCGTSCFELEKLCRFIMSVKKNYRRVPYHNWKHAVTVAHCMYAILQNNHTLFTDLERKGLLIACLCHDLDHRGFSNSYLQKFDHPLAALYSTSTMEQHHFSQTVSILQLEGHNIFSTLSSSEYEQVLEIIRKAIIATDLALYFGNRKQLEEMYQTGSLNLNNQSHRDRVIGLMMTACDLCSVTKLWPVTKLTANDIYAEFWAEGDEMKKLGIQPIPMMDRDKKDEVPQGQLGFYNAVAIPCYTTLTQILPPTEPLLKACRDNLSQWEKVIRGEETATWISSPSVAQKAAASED
Put plainly: Inhibition of human recombinant PDE10A ([3H]-cAMP SPA, Method B). The class given is biochemical. The following applies: read-out: PDE10 inhibition IC50 [nM] PDE10A human. The protocol:
The gene was than inserted into a baculovirus vector, ligated with the baculovirus DNA. The enzyme-protein was expressed in SF21-cells. The enzyme was isolated from these cells by harvesting the cells by a centrifugation at 200 g to collect the cells. The cells were resuspended in 50 mM Tris-HCl/5 mM MgCl2 buffer (pH=7.4) and lysed by a sonication of the cells. The cytosolic PDE10A was obtained by a centrifugation at 48000 g for 1 h in the supernatant and stored at −70° C. PDE10 activity was determined in a one step procedure in microtiterplates. […] Nonspecific activity was tested without the enzyme. The reaction was initiated by addition of the substrate solution and was carried out at 37° C. for 30 minutes. Enzymatic activity was stopped by addition of 25 μl YSi-SPA-beads (Amersham-Pharmacia). One hour later the mixture was measured in a liquid scintillation counter for microtiterplates (Microbeta Trilux). To pipette the incubation mixture a robot Biomek (Fa. Beckman) is used. […] For determination of IC50 values the Hill-plot, 2-parameter-model, was used.

Some results are limits rather than exact numbers.

Take `CCc1nc(C)c2c(N)nc3ccc(N4CCCCC4)cc3n12` [Example 1, 1-Ethyl-3-methyl-8-piperidin-1-yl-imidazo(1,5-a)quinoxalin-4-ylamine]: the IC50 against PDE10 from pig striatum was no less than 100 nM.

The compound `Cc1nc(C2CCCCC2)n2c1c(N)nc1ccc(F)cc12` [Example 2, 1-Cyclohexyl-8-fluoro-3-methyl-imidazo(1,5-a)quinoxalin-4-yl-amine] gave an IC50 at PDE10 from pig striatum of 10 to 100 nM.

Regarding `Cc1nc(-c2ccccc2Cl)n2c1c(N)nc1ccc(F)cc12` [Example 8, 1-(2-Chlorphenyl)-8-fluoro-3-methyl-imidazo(1,5-a)quinoxalin-4-ylamine], the IC50 at PDE10 from pig striatum is no more than 10 nM.

As to `CCCc1nc(C)c2c(C)nc3ccccc3n12` [Example 9, 3,4-Dimethyl-1-propyl-imidazo(1,5-a)quinoxaline], the IC50 against PDE10 from pig striatum lay in the range of 10 to 100 nM.

In the case of `CCCc1nc(C)c2c(OC)nc3ccc(F)cc3n12` [Example 18, 8-Fluoro-4-methoxy-3-methyl-1-propyl-imidazo(1,5-a)quin-oxaline], the IC50 at PDE10 from pig striatum is 10 to 100 nM.

In turn, `Cc1nc(-c2cc(Cl)ccc2Cl)n2c1c(C)nc1ccc(F)cc12` [Example 19, 1-(2,5-Dichlorophenyl)-8-fluoro-3,4-dimethylimidazo[1,5-a]quinoxaline] had an IC50 on PDE10 from pig striatum of 10 to 100 nM.

The compound `Cc1nc(-c2cc(Cl)cc(Cl)c2)n2c1c(C)nc1ccc(F)cc12` [Example 20, 1-(3,5-Dichlorophenyl)-8-fluoro-3,4-dimethylimidazo[1,5-a]quinoxaline] displayed an IC50 against PDE10 from pig striatum of 10 to 100 nM.

Turning to `Cc1nc(-c2cccc(Cl)c2)n2c1c(C)nc1ccc(F)cc12` [Example 21, 1-(3-Chlorophenyl)-8-fluoro-3,4-dimethylimidazo[1,5-a]quinoxaline], the IC50 against PDE10 from pig striatum is 10 to 100 nM.

On PDE10 from pig striatum, `Cc1nc(-c2ccc(F)cc2F)n2c1c(C)nc1ccc(F)cc12` [Example 22, 1-(2,4-Difluorophenyl)-8-fluoro-3,4-dimethylimidazo[1,5-a]quinoxaline] displayed an IC50 of 10 to 100 nM.

`COc1ccccc1-c1nc(C)c2c(C)nc3ccc(F)cc3n12` [Example 23, 8-Fluoro-1-(2-methoxyphenyl)-3,4-dimethylimidazo[1,5-a]quinoxaline] returned an IC50 against PDE10 from pig striatum of 10 to 100 nM.

For `COc1cccc(-c2nc(C)c3c(C)nc4ccc(F)cc4n23)c1` [Example 24, 8-Fluoro-1-(3-methoxyphenyl)-3,4-dimethylimidazo[1,5-a]quinoxaline], the IC50 at PDE10 from pig striatum is no more than 10 nM.

Take `Cc1ccccc1-c1nc(C)c2c(C)nc3ccc(OC(F)(F)F)cc3n12` [Example 118, 3,4-dimethyl-1-(2-methylphenyl)-8-(trifluoromethoxy)imidazo[1,5-a]quinoxaline]: the IC50 on human recombinant PDE10A is no more than 10 nM.

On to `Cc1nc(-c2cccc(C(N)=O)c2)n2c1c(C)nc1ccc(OC(F)(F)F)cc12` [Example 120, 3-[3,4-dimethyl-8-(trifluoromethoxy)imidazo[1,5-a]quinoxalin-1-yl]benzamide], for which the IC50 on human recombinant PDE10A was no more than 10 nM.

With `COc1ccncc1-c1nc(C)c2c(C)nc3ccc(C(F)(F)F)cc3n12` [Example 123, 1-(4-methoxypyridin-3-yl)-3,4-dimethyl-8-(trifluoromethyl)imidazo[1,5-a]quinoxaline], the IC50 on human recombinant PDE10A was in the range of 10 to 100 nM.

Regarding `Cc1ccccc1-c1nc(C)c2c(C)nc3ccc(C(F)(F)F)cc3n12` [Example 125, 3,4-dimethyl-1-(2-methylphenyl)-8-(trifluoromethyl)imidazo[1,5-a]quinoxaline], the IC50 on human recombinant PDE10A was in the range of 10 to 100 nM.

`COc1cc2nc(C)c3c(C)nc(-c4ccccc4C)n3c2cc1Cl` [Example 126, 8-chloro-7-methoxy-3,4-dimethyl-1-(2-methylphenyl)imidazo[1,5-a]quinoxaline]: the IC50 at human recombinant PDE10A was no more than 10 nM.

For the compound `COc1cc2nc(C)c3c(C)nc(-c4ccncc4C)n3c2cc1Cl` [Example 127, 8-chloro-7-methoxy-3,4-dimethyl-1-(3-methylpyridin-4-yl)imidazo[1,5-a]quinoxaline], at human recombinant PDE10A, the IC50 was no more than 10 nM.

Consider `COc1cc2nc(C)c3c(C)nc(-c4cnccc4C)n3c2cc1Cl` [Example 128, 8-chloro-7-methoxy-3,4-dimethyl-1-(4-methylpyridin-3-yl)imidazo[1,5-a]quinoxaline], for which, at human recombinant PDE10A, the IC50 is 10 to 100 nM.

Turning to `COc1cc2nc(C)c3c(C)nc(-c4ccccc4Cl)n3c2cc1Cl` [Example 129, 8-chloro-1-(2-chlorophenyl)-7-methoxy-3,4-dimethylimidazo[1,5-a]quinoxaline], on human recombinant PDE10A, the IC50 was no more than 10 nM.

As to `COc1cc2nc(C)c3c(C)nc(-c4cccnc4C)n3c2cc1Cl` [Example 130, 8-chloro-7-methoxy-3,4-dimethyl-1-(2-methylpyridin-3-yl)imidazo[1,5-a]quinoxaline], at human recombinant PDE10A, the half-maximal inhibitory concentration (IC50) was no more than 10 nM.

On to `COc1cc2nc(C)c3c(C)nc(-c4c(C)nn(C)c4C)n3c2cc1Cl` [Example 131, 8-chloro-7-methoxy-3,4-dimethyl-1-(1,3,5-trimethyl-1H-pyrazol-4-yl)imidazo[1,5-a]quinoxaline], for which the IC50 at human recombinant PDE10A is no more than 10 nM.

With `CCOc1cc2nc(C)c3c(C)nc(-c4ccccc4C)n3c2cc1Cl` [Example 132, 8-Chloro-7-ethoxy-3,4-dimethyl-1-(2-methylphenyl)imidazo[1,5-a]quinoxaline], the IC50 on human recombinant PDE10A lay within 10 to 100 nM.

For the compound `COc1cccc2c1nc(C)c1c(C)nc(-c3ccccc3C)n12` [Example 133, 6-Methoxy-3,4-dimethyl-1-(2-methylphenyl)imidazo[1,5-a]quinoxaline], the IC50 at human recombinant PDE10A is no more than 10 nM.

In the case of `Cc1ccc(C(N)=O)cc1-c1nc(C)c2c(C)nc3ccc(F)cc3n12` [Example 134, 3-(8-fluoro-3,4-dimethylimidazo[1,5-a]quinoxalin-1-yl)-4-methylbenzamide], the IC50 on human recombinant PDE10A lay within 10 to 100 nM.

For the compound `Cc1nc(-c2ccc(F)c(C(N)=O)c2)n2c1c(C)nc1ccc(F)cc12` [Example 135, 2-fluoro-5-(8-fluoro-3,4-dimethylimidazo[1,5-a]quinoxalin-1-yl)benzamide], the IC50 on human recombinant PDE10A is 10 to 100 nM.

For the compound `Cc1nc(-c2cc(F)cc(C(N)=O)c2)n2c1c(C)nc1ccc(F)cc12` [Example 136, 3-fluoro-5-(8-fluoro-3,4-dimethylimidazo[1,5-a]quinoxalin-1-yl)benzamide], the IC50 at human recombinant PDE10A was in the range of 10 to 100 nM.

Consider `Cc1nc(-c2cc(C(N)=O)ccc2F)n2c1c(C)nc1ccc(F)cc12` [Example 137, 4-fluoro-3-(8-fluoro-3,4-dimethylimidazo[1,5-a]quinoxalin-1-yl)benzamide], for which, on human recombinant PDE10A, the IC50 was in the range of 10 to 100 nM.

Take `Cc1nc(F)ccc1-c1nc(C)c2c(C)nc3ccc(F)cc3n12` [Example 139, 8-fluoro-1-(6-fluoro-2-methylpyridin-3-yl)-3,4-dimethylimidazo[1,5-a]quinoxaline]: the IC50 on human recombinant PDE10A is no less than 100 nM.

Turning to `COc1ccncc1-c1nc(C)c2c(C)nc3ccc(F)cc3n12` [Example 140, 8-fluoro-1-(4-methoxypyridin-3-yl)-3,4-dimethylimidazo[1,5-a]quinoxaline], on human recombinant PDE10A, the IC50 is no less than 100 nM.

For `Cc1nc(-c2ccncc2)n2c1c(C)nc1ccc(F)cc12` [Example 143, 8-fluoro-3,4-dimethyl-1-pyridin-4-ylimidazo[1,5-a]quinoxaline], on human recombinant PDE10A, the IC50 is no less than 100 nM.

For the compound `Cc1nc(-c2cccnc2)n2c1c(C)nc1ccc(F)cc12` [Example 144, 8-fluoro-3,4-dimethyl-1-pyridin-3-ylimidazo[1,5-a]quinoxaline], the IC50 at human recombinant PDE10A is no less than 100 nM.

Turning to `CCCc1nc(C)c2c(Cl)nc3ccc(OC)cc3n12` [Intermediate B1, 4-chloro-8-methoxy-3-methyl-1-propyl-imidazo[1,5-a]quinazoline], the IC50 on human recombinant PDE10A lay in the range of 10 to 100 nM.

For orientation: IC50 means the concentration needed to halve the response being measured.
